Reference: patent US9877962B2, “Piperazinyl derivatives for the treatment of cancer” (priority 2011, dated 2018)
In brackets after ≈: the same amount, converted by molar mass. Like-named read-outs stand apart in the source and are kept apart here.

Legend:
[1] = Determination of aqueous solubility; type: physicochemical; settings: aqueous medium, aqueous buffer, thermodynamic from solid, pH 7.4, agitation 24 h, 20° C., HPLC
Description: The aqueous solubility of each compound was measured at pH 7.4. It was measured using HPLC on the supernatants obtained by centrifugation after saturation of the media with excess compound after an agitation time of 24 h and at a temperature of 20° C. The preparation and treatment of the samples was robotized.

[2] = system: 3 human cancer cell lines established from Head & Neck (HNSCC); assay: MTT cell proliferation assay on HNSCC cell lines; type: cell-based; settings: MTT assay after 72 hours of treatment, FIG. 2
Description: (§1) Compound I-43b has been tested in 3 human cancer cell lines established from Head & Neck (HNSCC) and in 4 human cancer cell lines established hepatocarcinoma (HCC). […] Cell proliferation has been evaluated using the MTT assay after 72 hours of treatment.

[3] = system: 4 human cancer cell lines established hepatocarcinoma (HCC); assay: MTT cell proliferation assay on HCC cell lines; type: cell-based; settings: MTT assay after 72 hours of treatment, FIG. 2
Description: as §1

NCI 60 cell lines = assay: NCI 60 tumor cell line panel (SRB); type: cell-based, human; settings: concentration of 10 μM, 48 h, FIG. 3
Description: Compound I-43b has been tested in the NCI 60 cell line panel. This screen utilizes 60 different human tumor cell lines, representing leukemia, melanoma, lung cancer, colon cancer, CNS cancer, ovarian cancer, breast cancer, prostate cancer and renal cancer.
The 60 human tumor cell lines of the cancer screening panel are grown in RPMI 1640 medium containing 5% fetal bovine serum and 2 mM L-glutamine. For a typical screening experiment, cells are inoculated into 96 well microtiter plates in 100 μL at plating densities ranging from 5,000 to 40,000 cells/well depending on the doubling time of individual cell lines. […]
Following drug addition, the plates are incubated for an additional 48 h at 37° C., 5% CO2, 95% air, and 100% relative humidity. […] Bound stain is subsequently solubilized with 10 mM trizma base, and the absorbance is read on an automated plate reader at a wavelength of 515 nm. […] Using the seven absorbance measurements [time zero (Tz), control growth (C), and test growth in the presence of drug at the five concentration levels (Ti)], the percentage growth is calculated at each of the drug concentrations levels. Percentage growth inhibition is calculated as: [(Ti−Tz)/(C−Tz)]×100 for concentrations for which Ti>/=Tz [(Ti−Tz)/Tz]×100 for concentrations for which Ti<Tz.
Three dose response parameters are calculated for each experimental agent. […]

[4] = Pharmacokinetic parameters in mice; type: in vivo, balb/c mice; settings: IV 10 mg/kg or PO 30 mg/kg, FIG. 1
Description: The pharmacokinetic behaviour of compounds is a pre-requisite for reasonable use thereof in in vivo experimentation. The compounds were given in DMSO solution via intravenous route (IV) or oral route (PO) to balb/c mice. Blood samples were taken at times ranging from 5 minutes to 6 hours, the plasmas were collected and the concentration of the compounds in each sample was assayed by LC/MS/MS. The data obtained allowed the plotting of time-concentration curves and determination of fundamental parameters such as plasma half-life of the compound (T½), area under curve at a given time (AUCt) and the maximum concentration obtained (Cmax).

HT29 = assay: Cytotoxicity test (ViaLight Plus cell proliferation) on HT29; type: cell-based, human; settings: 72 hours' incubation, cell viability
From the text: (§2) The effects of the compounds of the invention on the proliferation of cancer cells were studied on different human cancer cell lines of different tissue origin (MCF-7: breast cancer, MCF-7/adr adriamycin-resistant breast cancer, HL-60: acute promyelocytic leukaemia, HL-60/R10: doxorubicin-resistant acute promyelocytic leukaemia, HT29: colon adenocarcinoma, Mia Paca2: pancreatic tumour, Panc-1: pancreatic exocrine tumour, SK-OV-3: cisplatin- and adriamycin resistant ovarian cancer). The cancer cells used for this study were incubated at 37° C. in the presence of one of the compounds of the invention added to the culture medium at different concentrations.
(§3) The cancer cell lines were obtained from ATCC (American Type Culture Collection) for MCF-7, from Hôpital de la Pitié Salpetrière for MCF-7/adr and from Oncodesign (Dijon, France) for HL-60, HL-60/R10, HT29, MiaPaCa2, Panc-1 and SK-OV-3. They were cultured in RPMI 1640 medium containing 2 mM L-Glutamine supplemented with 10% foetal calf serum (Lonza; Verviers, Belgium). All the cell lines were held in culture at 37° C. in a humid atmosphere containing 5% CO2. Cell proliferation was assessed using the ViaLight® Plus Assay Kit (Lonza; Verviers, Belgium) following the manufacturer's instructions. The cells were seeded in 96-well culture plates compatible with luminescence read-off (white plates with transparent bottom) in a proportion of 5 000 to 10 000 cells per well in 100 μl of culture medium. After a pre-incubation time of 24 hours at 37° C., the compounds of the invention dissolved in dimethylsulfoxide (DMSO) were individually added to each well in a proportion of 0.5 μl per well. After 72 hours' incubation at 37° C. in a humid atmosphere containing 5% CO2, 50 μl of lysis buffer were added to each well and 15 minutes later 100 μl of ATP measuring agent were added. The plates were read under a luminometer to evaluate cell viability. The data obtained was processed by computer to obtain the EC50 value i.e. the concentration value of each of the compounds which induces 50% cell viability compared with a control value (0.5% DMSO alone).

MCF-7 = assay: Cytotoxicity test (ViaLight Plus cell proliferation) on MCF-7; type: cell-based, human; settings: 72 hours' incubation, cell viability vs 0.5% DMSO control; for IC50: Homo sapiens, MCF7, 72 h, read-out: EC50 MCF-7
From the text: as §2, §3

HL-60/R10 = assay: Cytotoxicity test (ViaLight Plus cell proliferation) on HL-60/R10; type: cell-based, human; settings: doxorubicin-resistant line, 72 hours' incubation, cell viability vs 0.5% DMSO control, read-out: EC50 HL60/R10; for IC50: HL-60, 72 h
SK-OV-3 = assay: Cytotoxicity test (ViaLight Plus cell proliferation) on SK-OV-3; type: cell-based, human; settings: cisplatin- and adriamycin resistant line, 72 hours' incubation, cell viability
From the text: as §2, §3

Panc-1 = assay: Cytotoxicity test (ViaLight Plus cell proliferation) on Panc-1; type: cell-based, human; settings: 72 hours' incubation, cell viability
From the text: as §2, §3

Mia PaCa2 = assay: Cytotoxicity test (ViaLight Plus cell proliferation) on Mia PaCa2; type: cell-based, human; settings: 72 hours' incubation, cell viability
From the text: as §2, §3

HL-60 = assay: Cytotoxicity test (ViaLight Plus cell proliferation) on HL-60; type: cell-based, human; settings: 72 hours' incubation, cell viability vs 0.5% DMSO control; for IC50: HL-60, 72 h, read-out: EC50 HL-60
MCF-7/adr = assay: Cytotoxicity test (ViaLight Plus cell proliferation) on MCF-7/adr; type: cell-based, human; settings: adriamycin-resistant line, 72 hours' incubation, cell viability vs 0.5% DMSO control; for IC50: Homo sapiens, NCI/ADR-RES, 72 h, read-out: EC50 MCF-7/adr

| Compound | solubility at 24 h [1] [µg/mL] | IC50 (MCF-7) [nM] | IC50 (HL-60/R10; Homo sapiens) [nM] | IC50 (HL-60; Homo sapiens) [nM] | IC50 (MCF-7/adr) [nM] | other results |
| --- | --- | --- | --- | --- | --- | --- |
| CC(C)[C@H]1CN(C(=O)C(c2cccs2)N(C(=O)CCl)c2ccc(Oc3ccccc3)cc2)CCN1 (stereo partly shown) | 50 (≈ 97.6 µM) | – | – | – | – | – |
| Cc1cc(Oc2ccccc2)ccc1N(C(=O)CCl)[C@H](C(=O)N1CCN[C@@H](C)C1)c1cccs1 (single isomer, unassigned) [Example I-43b] | – | – | – | – | – | cell proliferation inhibition, HNSCC cell lines [2]: inhibited cell proliferation in a concentration dependent manner; cell proliferation inhibition, HCC cell lines [3]: inhibited cell proliferation in a concentration dependent manner; growth inhibition of NCI 60 tumor cell lines, single dose screen (NCI 60 cell lines): selective growth inhibition on all these tumor cell lines |
| Cc1cc(Oc2ccccc2)ccc1N(C(=O)CCl)C(C(=O)N1CCN[C@@H](C)C1)c1cccs1 (single isomer, unassigned) [I-43 dia2] | – | 1420 | 20 | 1890 | 126 | bioavailability in a mouse [4]: good bioavailability; IC50 (HT29; Homo sapiens, HT-29, read-out: EC50 HT29): 10 nM; IC50 (SK-OV-3; Homo sapiens, SK-OV-3, read-out: EC50 SK-OV-3): 9 nM; IC50 (Panc-1; Homo sapiens, PANC-1, read-out: EC50 Panc-1): 7 nM; IC50 (Mia PaCa2; Homo sapiens, MIA PaCa-2, read-out: EC50 Mia PaCa2): 18 nM |
| Cc1cc(Oc2ccccc2)ccc1N(C(=O)CCl)C(C(=O)N1CCN[C@@H](C(C)C)C1)c1cccs1 (single isomer, unassigned; dia2) [I-46 dia2] | – | – | – | – | – | EC50 (HT29): 6 nM; EC50 (MCF-7): 1180 nM; EC50 (HL-60/R10): 10 nM; EC50 (SK-OV-3): 6 nM; EC50 (Panc-1): 4 nM; EC50 (Mia PaCa2): 10 nM; EC50 (HL-60): 449 nM; EC50 (MCF-7/adr): 58 nM |
| C[C@H]1CN(C(=O)C(c2cccs2)N(C(=O)CCl)c2ccc(Oc3ccccc3)cc2)CCN1.Cl (stereo partly shown) [Example I-58] | 203 | 870 | 11 | 1060 | 88 | EC50 (HL-60/R10; Homo sapiens, HL-60): 11 nM; EC50 (HL-60; Homo sapiens, HL-60): 1060 nM |
| C[C@@H]1CN(C(=O)C(c2cccs2)N(C(=O)CCl)c2ccc(Oc3ccccc3)cc2)CCN1.Cl (stereo partly shown) [Example I-59] | 152 | 745 | 16 | 956 | 106 | EC50 (HL-60/R10; Homo sapiens, HL-60): 16 nM |
| Cl.O=C(C(c1cccs1)N(C(=O)CCl)c1ccc(Oc2ccccc2)cc1)N1CCNCC1 (stereo not shown) [reference compound] | 68 | – | 21 | 579 | – | – |
| C[C@H]1CNCCN1C(=O)C(c1cccs1)N(C(=O)CCl)c1ccc(Oc2ccccc2)cc1.Cl (stereo partly shown) [reference compound] | 105 | – | 65 | 662 | – | – |
